The source made the active and inactive calls.
How the values were obtained:
[1] = target: T1, Delta-type opioid receptor (Homo sapiens, UniProt P41143); experiment: HTS Image-Based Screen for Antagonists of the DOR Receptor. [Related pubchem assays (depositor defined):AID1777, AID1785, AID1786, AID2133]; type: functional
[2] = target: T2, Kappa-type opioid receptor (Homo sapiens, UniProt P41145); type: functional
[3] = target: T3, Sphingosine 1-phosphate receptor 4 (Homo sapiens, UniProt O95977); experiment: Fluorescence dose response cell-based high throughput screening assay for antagonists of the Sphingosine 1-Phosphate Receptor 4 (S1P4). [Related pubchem assays: 1524 (Confirmation in triplicates.), 1510 (Primary screen.)]; type: functional
T3 sequence (O95977 whole entry): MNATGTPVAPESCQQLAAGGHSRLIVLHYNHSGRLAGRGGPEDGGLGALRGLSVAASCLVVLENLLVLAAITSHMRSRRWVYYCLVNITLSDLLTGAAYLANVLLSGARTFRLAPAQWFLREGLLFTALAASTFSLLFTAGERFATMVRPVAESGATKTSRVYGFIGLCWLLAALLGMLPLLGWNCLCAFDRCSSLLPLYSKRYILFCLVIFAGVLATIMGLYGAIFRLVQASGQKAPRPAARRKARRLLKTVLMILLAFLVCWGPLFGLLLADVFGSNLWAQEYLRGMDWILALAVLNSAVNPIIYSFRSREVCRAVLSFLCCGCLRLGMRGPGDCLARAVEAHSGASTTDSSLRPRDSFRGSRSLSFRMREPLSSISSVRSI

[4] = alpha-synuclein stem-loop luciferase translation blockers – H4 neuroglioma cells, luminescence, confirmation (AID 1988); type: functional, cell-based
[5] = blockade of melanocortin 4 receptor signaling – cell-based, plate reader, cherry pick, counter-screen for LGR2 antagonist project, dose response (AID 743444); type: functional;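 also: transfected HEK 293 cells stimulated with alpha-MSH peptide; potency of inhibitors of the alpha-MSH evoked signal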
[6] = Trypanosoma cruzi growth suppression in host cells – NIH3T3 host cells, beta-gal luminescence, confirmation (AID 2044); type: functional, cell-based;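 also: intracellular parasites grown in NIH/3T3 mouse fibroblasts as host cells; luminescent beta-galactosidase reporter signal from transgenic T. cruzi replicating inside host cells; inhibitors lower the luminescence signal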
[7] = target: T1, Delta-type opioid receptor; experiment: HTS Image-Based Screen for Agonists of the DOR Receptor. [Related pubchem assays (depositor defined):AID1777, AID1786, AID2133]; type: functional
[8] = luciferase reporter signal suppression in cells – H4 neuroglioma cells, luminescence, dose response (AID 1990); type: functional, cell-based
Beta-galactosidase = Beta-galactosidase (Escherichia coli, UniProt Q8VNN2); type: functional
Beta-galactosidase, sequence (Q8VNN2 whole entry): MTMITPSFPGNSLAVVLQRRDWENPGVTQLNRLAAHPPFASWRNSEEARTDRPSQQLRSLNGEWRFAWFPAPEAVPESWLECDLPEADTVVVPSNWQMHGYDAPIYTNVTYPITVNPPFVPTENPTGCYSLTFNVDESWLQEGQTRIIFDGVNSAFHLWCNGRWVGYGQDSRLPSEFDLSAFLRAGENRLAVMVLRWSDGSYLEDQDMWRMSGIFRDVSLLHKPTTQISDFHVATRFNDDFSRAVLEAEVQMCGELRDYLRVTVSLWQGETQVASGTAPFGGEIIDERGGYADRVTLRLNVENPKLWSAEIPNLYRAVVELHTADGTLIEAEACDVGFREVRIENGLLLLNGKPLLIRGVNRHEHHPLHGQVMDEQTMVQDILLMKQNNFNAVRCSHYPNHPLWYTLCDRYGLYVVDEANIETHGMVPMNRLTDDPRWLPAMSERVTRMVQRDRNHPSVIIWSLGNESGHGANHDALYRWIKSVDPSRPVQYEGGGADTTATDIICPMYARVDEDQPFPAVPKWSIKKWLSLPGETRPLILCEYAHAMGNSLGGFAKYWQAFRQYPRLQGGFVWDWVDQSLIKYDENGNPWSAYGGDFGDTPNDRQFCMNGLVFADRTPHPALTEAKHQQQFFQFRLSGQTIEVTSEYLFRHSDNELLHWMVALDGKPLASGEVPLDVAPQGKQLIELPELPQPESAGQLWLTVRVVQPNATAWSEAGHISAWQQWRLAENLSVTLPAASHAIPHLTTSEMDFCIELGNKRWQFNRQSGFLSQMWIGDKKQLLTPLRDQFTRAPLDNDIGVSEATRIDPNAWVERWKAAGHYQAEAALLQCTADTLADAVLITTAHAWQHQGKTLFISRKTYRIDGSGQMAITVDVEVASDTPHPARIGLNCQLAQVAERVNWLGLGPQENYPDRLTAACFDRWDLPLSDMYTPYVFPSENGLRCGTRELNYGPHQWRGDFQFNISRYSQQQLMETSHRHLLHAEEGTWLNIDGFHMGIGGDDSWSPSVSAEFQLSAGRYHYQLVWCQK

[9] = A549 cell cytotoxicity, dose response, cytotoxicity control, plate reader, cherry-pick, antagonist series (AID 743412); type: functional, cell-based
[10] = NIH3T3 cell viability loss – ATP luminescence, mouse fibroblasts, counter-screen, dose response (AID 2010); type: functional, cell-based;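 also: cells exposed to compound for about 90 hours before reading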
[11] = target: T4, Sphingosine 1-phosphate receptor 1 (Homo sapiens, UniProt P21453); type: functional
T4 sequence (P21453 whole entry): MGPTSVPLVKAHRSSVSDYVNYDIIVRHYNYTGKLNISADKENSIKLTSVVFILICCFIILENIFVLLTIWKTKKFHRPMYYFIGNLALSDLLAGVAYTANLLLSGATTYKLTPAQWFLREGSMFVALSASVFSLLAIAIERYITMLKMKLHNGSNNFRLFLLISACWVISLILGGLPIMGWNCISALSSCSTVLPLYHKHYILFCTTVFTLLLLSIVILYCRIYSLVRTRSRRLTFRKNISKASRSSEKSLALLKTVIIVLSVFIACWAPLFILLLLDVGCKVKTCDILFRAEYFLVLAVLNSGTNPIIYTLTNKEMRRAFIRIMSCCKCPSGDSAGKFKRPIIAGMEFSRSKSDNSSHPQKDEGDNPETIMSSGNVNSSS

[12] = blockers of bursicon-stimulated LGR2 cAMP reporter – cell-based, HEK293, CRE-luciferase reporter, cherry pick, set 2, dose response (AID 743343); type: functional;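 also: transfected cells were stimulated with diluted bursicon conditioned medium after compound addition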
[13] = viability loss in HEK293 cells – cell-based, plate reader, cherry-picked samples, cytotoxicity control, dose response (AID 743446); type: functional
[14] = target: T5, Microphthalmia-associated transcription factor (Homo sapiens, UniProt O75030); experiment: reducers of TRPM1 reporter luminescence, concentration series – cell-based, SK-MEL-5, cherry-picked, set 3, MITF inhibitor project, dose response (AID 493073); type: functional;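 also: SK-MEL-5 melanoma cells with luciferase driven by the MITF target TRPM1 promoter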
T5 sequence (O75030 whole entry): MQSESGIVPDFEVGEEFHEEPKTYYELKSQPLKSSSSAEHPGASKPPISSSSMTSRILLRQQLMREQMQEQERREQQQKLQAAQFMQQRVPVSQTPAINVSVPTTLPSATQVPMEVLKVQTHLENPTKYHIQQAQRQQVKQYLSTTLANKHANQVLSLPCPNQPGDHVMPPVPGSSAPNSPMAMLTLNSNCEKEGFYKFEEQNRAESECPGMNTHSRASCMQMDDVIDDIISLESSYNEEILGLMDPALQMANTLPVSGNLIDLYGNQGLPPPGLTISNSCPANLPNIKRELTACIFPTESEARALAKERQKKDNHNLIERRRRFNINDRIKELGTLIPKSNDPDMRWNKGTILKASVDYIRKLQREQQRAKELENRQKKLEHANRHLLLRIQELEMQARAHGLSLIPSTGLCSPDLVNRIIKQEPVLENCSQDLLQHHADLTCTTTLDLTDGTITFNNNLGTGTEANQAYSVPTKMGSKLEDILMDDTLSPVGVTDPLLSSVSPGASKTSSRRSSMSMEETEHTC

A-375 [15] = experiment: MITF: Counter assay: A375 proliferation Measured in Cell-Based System Using Plate Reader - 2084-03_Inhibitor_Dose_DryPowder_Activity. [Related pubchem assays (depositor defined):AID488944]; type: functional; conditions: Homo sapiens
[16] = target: T2, Kappa-type opioid receptor; type: functional; remark: listed apart in the source
[17] = toxicity toward HepG2 liver cells – cell-based, plate reader, cherry-pick, antagonist series, cytotoxicity control, dose response (AID 743416); type: functional
A-375 [18] = experiment: proliferation inhibition in MITF-low A375 cells – cell-based, cherry-pick samples, set 2, counter-screen for MITF modulator project, dose response (AID 540335); type: functional; conditions: Homo sapiens
Mu-type opioid receptor [19] = target: T6, Mu-type opioid receptor (Homo sapiens, UniProt P35372); experiment: HTS Image-Based Screen for Agonists of the MOR Receptor. [Related pubchem assays (depositor defined):AID1777, AID1785, AID1786, AID2133]; type: functional
T6 sequence (P35372 whole entry): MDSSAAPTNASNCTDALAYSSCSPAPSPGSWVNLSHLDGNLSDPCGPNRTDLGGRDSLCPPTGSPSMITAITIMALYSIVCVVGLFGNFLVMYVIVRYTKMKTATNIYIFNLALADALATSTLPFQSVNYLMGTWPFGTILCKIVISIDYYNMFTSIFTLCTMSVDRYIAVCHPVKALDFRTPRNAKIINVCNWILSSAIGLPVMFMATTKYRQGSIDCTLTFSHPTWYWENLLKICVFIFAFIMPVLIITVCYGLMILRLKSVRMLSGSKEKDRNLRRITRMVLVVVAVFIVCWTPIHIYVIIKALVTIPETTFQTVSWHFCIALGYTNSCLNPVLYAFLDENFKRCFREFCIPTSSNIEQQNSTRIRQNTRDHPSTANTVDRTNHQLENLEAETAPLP

[20] = Luminescence Cell-Based Dose Response HTS to Identify Inhibitors of 5'UTR Stem-Loop Driven Prion Protein mRNA Translation in H4 Neuroglioblastoma Cells. [Related pubchem assays: 1827 (Project Summary), 1813 (Primary HTS)]; type: functional
[21] = target: Sphingosine 1-phosphate receptor 5 (Homo sapiens, UniProt Q9H228); experiment: Late stage counterscreen assay for S1P4 antagonists: Fluorescence dose response cell-based screening assay for antagonists of the Sphingosine 1-Phosphate Receptor 5 (S1P5). [Related pubchem assays (depositor defined):AID1510, AID1524, AID1692, AID1853, AID2332, AID489009, AID489017]; type: functional
Sphingosine 1-phosphate receptor 5, sequence (Q9H228 whole entry): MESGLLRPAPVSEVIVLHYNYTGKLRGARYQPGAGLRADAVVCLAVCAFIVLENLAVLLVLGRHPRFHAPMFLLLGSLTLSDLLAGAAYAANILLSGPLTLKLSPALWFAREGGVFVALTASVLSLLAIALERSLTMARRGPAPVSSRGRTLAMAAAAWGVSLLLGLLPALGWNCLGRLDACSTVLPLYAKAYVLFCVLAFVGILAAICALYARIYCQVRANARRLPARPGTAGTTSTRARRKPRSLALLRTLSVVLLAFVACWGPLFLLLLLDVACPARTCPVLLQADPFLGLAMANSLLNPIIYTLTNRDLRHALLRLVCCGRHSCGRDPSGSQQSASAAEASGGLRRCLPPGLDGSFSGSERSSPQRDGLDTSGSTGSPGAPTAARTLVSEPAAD

[22] = target: T4, Sphingosine 1-phosphate receptor 1; experiment: Late stage counterscreen assay for S1P4 antagonists: Fluorescence dose response cell-based screening assay for antagonists of the Sphingosine 1-Phosphate Receptor 1 (S1P1). [Related pubchem assays (depositor defined):AID1510, AID1524, AID1692, AID1853, AID2332, AID489009, AID489017]; type: functional
[23] = target: T3, Sphingosine 1-phosphate receptor 4; experiment: potency of S1P4 blockers – cell-based, fluorescence, synthesized analogues, late-stage follow-up (AID 2346); type: functional
[24] = target: Sphingosine 1-phosphate receptor 2 (Homo sapiens, UniProt O95136); experiment: Late stage counterscreen assay for S1P4 antagonists: Fluorescence dose response cell-based screening assay for antagonists of the Sphingosine 1-Phosphate Receptor 2 (S1P2). [Related pubchem assays (depositor defined):AID1510, AID1524, AID1692, AID1853, AID2332, AID489009, AID489017]; type: functional
Sphingosine 1-phosphate receptor 2, sequence (O95136 whole entry): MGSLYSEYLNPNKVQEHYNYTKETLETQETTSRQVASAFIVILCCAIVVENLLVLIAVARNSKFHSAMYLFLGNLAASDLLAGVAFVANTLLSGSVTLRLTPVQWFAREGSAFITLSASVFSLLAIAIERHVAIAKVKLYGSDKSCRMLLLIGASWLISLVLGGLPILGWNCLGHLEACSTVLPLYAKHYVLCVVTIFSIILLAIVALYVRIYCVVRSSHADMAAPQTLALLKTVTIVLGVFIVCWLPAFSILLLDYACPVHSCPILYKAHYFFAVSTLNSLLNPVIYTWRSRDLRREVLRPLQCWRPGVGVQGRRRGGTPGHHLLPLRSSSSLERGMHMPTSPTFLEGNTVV

[25] = target: Sphingosine 1-phosphate receptor 3 (Homo sapiens, UniProt Q99500); experiment: Late stage counterscreen assay for S1P4 antagonists: Fluorescence dose response cell-based screening assay for antagonists of the Sphingosine 1-Phosphate Receptor 3 (S1P3). [Related pubchem assays (depositor defined):AID1510, AID1524, AID1692, AID1853, AID2332, AID489009, AID489017]; type: functional
Sphingosine 1-phosphate receptor 3, sequence (Q99500 whole entry): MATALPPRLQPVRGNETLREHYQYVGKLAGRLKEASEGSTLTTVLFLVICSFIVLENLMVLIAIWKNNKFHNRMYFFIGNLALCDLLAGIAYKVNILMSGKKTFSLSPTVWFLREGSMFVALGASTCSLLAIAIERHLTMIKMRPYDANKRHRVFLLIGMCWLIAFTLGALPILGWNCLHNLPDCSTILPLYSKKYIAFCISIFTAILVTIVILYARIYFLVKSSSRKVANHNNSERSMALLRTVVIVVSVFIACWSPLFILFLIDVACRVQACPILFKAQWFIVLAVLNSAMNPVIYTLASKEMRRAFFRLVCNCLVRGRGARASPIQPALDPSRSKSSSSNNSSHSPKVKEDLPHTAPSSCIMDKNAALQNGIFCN

[26] = target: T1, Delta-type opioid receptor; experiment: SAR Analysis of Antagonists of the DOR Receptor using an Image-Based Assay - Set 2. [Related pubchem assays (depositor defined):AID1777, AID1785, AID1786, AID1966, AID2133, AID2136, AID2284, AID2285, AID2357]; type: functional
[27] = target: T2, Kappa-type opioid receptor; experiment: SAR analysis of Antagonists of the Kappa Opioid Receptor (KOR) using an Image-Based Assay - Set 2. [Related pubchem assays (depositor defined):AID1777, AID1785, AID1786, AID1966, AID2133, AID2136, AID2284, AID2285, AID2348]; type: functional
[28] = target: T1, Delta-type opioid receptor; experiment: SAR Analysis of Agonists of the DOR Receptor using an Image-Based Assay - Set 3. [Related pubchem assays (depositor defined):AID1777, AID1786]; type: functional
Mu-type opioid receptor [29] = target: T6, Mu-type opioid receptor; experiment: SAR Analysis of Antagonists of the MOR Receptor using an Image-Based Assay - Set 2. [Related pubchem assays (depositor defined):AID1777, AID1785, AID1786, AID1966, AID2133, AID2136, AID2284, AID2285, AID2420]; type: functional
Mu-type opioid receptor [30] = target: T6, Mu-type opioid receptor; experiment: SAR Analysis of Agonists of the MOR Receptor using an Image-Based Assay - Set 3. [Related pubchem assays (depositor defined):AID1777, AID1785, AID1786, AID1966, AID2133, AID2136, AID2284, AID2285, AID2352]; type: functional
[31] = target: T2, Kappa-type opioid receptor; experiment: SAR analysis of small molecule agonists of the kappa opioid receptor via a luminescent beta-arrestin assay - Set 3. [Related pubchem assays (depositor defined):AID1777, AID1785, AID1786, AID1966, AID2133, AID2136, AID2284, AID2500]; type: functional
[32] = target: T2, Kappa-type opioid receptor; experiment: kappa opioid receptor activation by imaging – image-based, set 3, SAR follow-up (AID 488833); type: functional
Mu-type opioid receptor [33] = target: T6, Mu-type opioid receptor; experiment: SAR Analysis of Agonists of the MOR Receptor using an Image-Based Assay - Set 2. [Related pubchem assays (depositor defined):AID1777, AID1785, AID1786, AID1966, AID2133, AID2136, AID2284, AID2285, AID2352]; type: functional
[34] = target: T1, Delta-type opioid receptor; experiment: SAR Analysis of Agonists of the DOR Receptor using an Image-Based Assay - Set 2. [Related pubchem assays (depositor defined):AID1777, AID1785, AID1786, AID1966, AID2133, AID2136, AID2284, AID2285, AID2370]; type: functional
[35] = target: Nuclear receptor ROR-gamma (Homo sapiens, UniProt P51449); experiment: LXR, FXR and VP16 reporter activity, cell-based, luciferase reporter, ROR modulator project, late-stage follow-up, panel member RORG (AID 2117)
[36] = target: Nuclear receptor ROR-alpha (Homo sapiens, UniProt P35398); experiment: LXR, FXR and VP16 reporter activity, cell-based, luciferase reporter, ROR modulator project, late-stage follow-up, panel member RORA (AID 2117)
Nuclear receptor ROR-alpha, sequence (P35398 whole entry): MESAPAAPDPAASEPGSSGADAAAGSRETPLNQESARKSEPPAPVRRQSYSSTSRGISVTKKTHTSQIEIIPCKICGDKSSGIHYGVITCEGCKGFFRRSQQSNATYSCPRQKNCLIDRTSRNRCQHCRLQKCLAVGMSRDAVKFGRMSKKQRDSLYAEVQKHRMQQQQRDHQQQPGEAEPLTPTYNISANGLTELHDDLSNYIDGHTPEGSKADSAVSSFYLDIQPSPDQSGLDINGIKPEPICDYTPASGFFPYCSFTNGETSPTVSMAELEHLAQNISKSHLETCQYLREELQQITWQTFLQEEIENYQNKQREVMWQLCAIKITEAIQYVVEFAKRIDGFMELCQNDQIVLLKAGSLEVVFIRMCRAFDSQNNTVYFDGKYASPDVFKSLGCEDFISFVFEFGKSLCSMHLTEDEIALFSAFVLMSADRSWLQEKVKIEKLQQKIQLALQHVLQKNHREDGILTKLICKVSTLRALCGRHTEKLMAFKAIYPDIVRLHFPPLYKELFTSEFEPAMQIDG

[37] = target: G-protein coupled receptor 55 (Homo sapiens, UniProt Q9Y2T6); experiment: inhibition of LPI-stimulated GPR55 beta-arrestin translocation – imaging, U2OS, beta-arrestin-GFP, LPI agonist, primary screen (AID 2013); type: functional;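 also: antagonist potency measured as reduced agonist-driven arrestin aggregation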
G-protein coupled receptor 55, sequence (Q9Y2T6 whole entry): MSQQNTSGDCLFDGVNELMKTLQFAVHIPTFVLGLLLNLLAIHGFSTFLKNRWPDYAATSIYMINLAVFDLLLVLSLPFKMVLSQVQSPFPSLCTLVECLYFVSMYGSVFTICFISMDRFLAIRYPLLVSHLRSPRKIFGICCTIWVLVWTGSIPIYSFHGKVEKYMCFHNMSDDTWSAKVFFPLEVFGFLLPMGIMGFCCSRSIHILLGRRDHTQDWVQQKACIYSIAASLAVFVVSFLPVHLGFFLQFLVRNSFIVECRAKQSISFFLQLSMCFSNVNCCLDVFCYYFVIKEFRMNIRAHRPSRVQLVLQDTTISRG

Exodeoxyribonuclease V = Exodeoxyribonuclease V (Escherichia coli (strain K12), UniProt P04993+P07648+P08394); experiment: RecBCD inhibition via phage-restricted bacterial growth – absorbance, V66 E. coli, mutant T4 phage, counter-screen for AddAB inhibitor project, dose response (AID 492957); type: functional, cell-based, Escherichia coli str. K-12 substr. MG1655
[38] = Counterscreen for AddAB inhibitors: absorbance-based bacterial cell-based high throughput dose response assay for inhibitors of bacterial viability. [Related pubchem assays (depositor defined):AID435030, AID449728, AID449731, AID488942, AID488955, AID488956]; type: functional

T2 sequence (P41145 whole entry): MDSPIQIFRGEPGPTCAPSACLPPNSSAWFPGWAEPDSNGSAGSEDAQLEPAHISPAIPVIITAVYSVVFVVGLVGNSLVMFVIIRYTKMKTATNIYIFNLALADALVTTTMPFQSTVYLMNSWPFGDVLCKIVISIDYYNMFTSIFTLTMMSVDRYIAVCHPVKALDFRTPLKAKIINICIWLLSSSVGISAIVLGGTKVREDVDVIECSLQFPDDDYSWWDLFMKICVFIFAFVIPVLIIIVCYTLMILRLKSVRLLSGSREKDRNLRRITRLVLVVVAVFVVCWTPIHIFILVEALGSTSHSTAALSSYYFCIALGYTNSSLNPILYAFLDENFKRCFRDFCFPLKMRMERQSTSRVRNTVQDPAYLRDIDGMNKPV
T1 sequence (P41143 whole entry): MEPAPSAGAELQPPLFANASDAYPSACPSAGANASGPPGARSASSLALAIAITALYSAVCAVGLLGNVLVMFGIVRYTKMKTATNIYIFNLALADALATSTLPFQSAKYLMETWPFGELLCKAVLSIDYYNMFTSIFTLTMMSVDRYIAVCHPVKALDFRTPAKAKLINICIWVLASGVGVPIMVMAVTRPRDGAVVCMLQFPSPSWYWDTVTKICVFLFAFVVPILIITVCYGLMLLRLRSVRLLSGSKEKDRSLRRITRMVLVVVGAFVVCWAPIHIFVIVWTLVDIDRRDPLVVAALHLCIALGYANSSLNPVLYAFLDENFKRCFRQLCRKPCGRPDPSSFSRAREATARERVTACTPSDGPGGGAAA

O=C(Cn1ncc(Cl)c(Cl)c1=O)N1CCc2ccccc21
> 120 µM (not active): EC50 [4]
inactive: IC50 [1] 14.7 µM | EC50 [7] > 32 µM | EC50 (Beta-galactosidase) > 31.5 µM | EC50 (Mu-type opioid receptor [19]) > 32 µM
2.85 µM: IC50 [2]
active: IC50 [3] 1.64 µM | AC50 [5] 8.77 µM | EC50 [6] 2.46 µM | EC50 [8] 8.12 µM | AC50 [9] 7.68 µM | EC50 [10] 4.51 µM | IC50 [11] 5.51 µM | AC50 [12] 7.11 µM | AC50 [13] 4.3 µM | AC50 [14] 6.1 µM | AC50 (A-375 [15]) > 35 µM | IC50 [16] 5.51 µM | AC50 [17] 16.3 µM | AC50 (A-375 [18]) > 35 µM | EC50 [20] 7.57 µM

Cc1ccc(NC(=O)c2ccc(-c3cc(Cl)ccc3Cl)o2)c(C)c1
inactive: IC50 [21] > 25 µM | IC50 [22] > 25 µM | IC50 [24] > 25 µM | IC50 [25] > 25 µM
active: IC50 [23] 0.182 µM

Clc1ccc(CSc2nnc(-c3ccccn3)n2Cc2cccs2)cc1Cl
inactive: IC50 [26] > 32 µM | IC50 [27] > 32 µM | EC50 [28] > 64 µM | IC50 (Mu-type opioid receptor [29]) > 32 µM | EC50 (Mu-type opioid receptor [30]) > 32 µM | EC50 (Mu-type opioid receptor [33]) > 32 µM | EC50 [34] > 32 µM
active: EC50 [31] 0.454 µM | EC50 [32] 0.349 µM

CC(C)(C)c1ccc(S(=O)(=O)Nc2ccc(C(O)(C(F)(F)F)C(F)(F)F)cc2)cc1
active: IC50 [36] 2.47 µM
inactive: IC50 [35] > 20 µM

O=[N+]([O-])c1c(O)oc2ccccc2/c1=N\C(c1ccccc1)c1ccccc1
active: IC50 [37] 2.79 µM
inactive: IC50 (Exodeoxyribonuclease V) > 119 µM | IC50 [38] > 119 µM

Reference: ChEMBL document CHEMBL1201862, “PubChem BioAssay data set” (2004)
